Assay results: patent US9730914B2, “3,5-diaminopyrazole kinase inhibitors” (Axikin Pharmaceuticals, Inc., priority 2014, dated 2017)

Tests used:
JAK2 = target: T1, JAK2 (Homo sapiens, UniProt O60674); experiment: Kinase competition binding assay (Kd, qPCR readout), JAK2; conditions: for Kd: Kd class, JAK2, read-out: JAK2 Activity Level; for RCK:JAK2 selectivity ratio: ratio Kd (JAK2): Kd(RCK)
T1 construct: made in house; host or cells: E. coli BL21-derived host (T7 phage) or HEK-293
How it was run: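 Competition binding: DNA-tagged kinase (T7 phage or HEK-293-expressed), immobilized biotinylated ligand beads and compound in SeaBlock/PBS/Tween/DTT buffer, 1 hour at room temperature; bound kinase eluted and quantified by qPCR. Kd from 11-point 3-fold dilution, top 30,000 nM typically, final DMSO 1%.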

JAK3 = target: T2, JAK3 (Homo sapiens, UniProt P52333); experiment: Kinase competition binding assay (Kd, qPCR readout), JAK3; conditions: for Kd: Kd class, JAK3, read-out: JAK3 Activity Level; for RCK:JAK3 selectivity ratio: ratio Kd (JAK3): Kd (RCK)
T2 construct: made in house; host or cells: E. coli BL21-derived host (T7 phage) or HEK-293
T2 sequence (P52333 811-1124 limits assumed): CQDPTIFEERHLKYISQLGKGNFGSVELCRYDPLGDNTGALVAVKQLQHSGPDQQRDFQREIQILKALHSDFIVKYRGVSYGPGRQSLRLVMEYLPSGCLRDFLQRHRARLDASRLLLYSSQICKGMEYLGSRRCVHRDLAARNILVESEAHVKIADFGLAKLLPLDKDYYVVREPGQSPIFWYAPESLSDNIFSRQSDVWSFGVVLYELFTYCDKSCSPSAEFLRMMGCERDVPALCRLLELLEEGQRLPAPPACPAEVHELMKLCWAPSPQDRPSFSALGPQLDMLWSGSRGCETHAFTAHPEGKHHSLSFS
How it was run: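 Kd values were derived from 11-point, 3-fold compound series at 1% DMSO, usually topping at 30,000 nM, with retesting from a lower top when under 0.5 nM. It competed with bead-immobilized ligand for 1 h at room temperature, and the captured kinase was measured by qPCR after elution.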

[1] = target: T3, kinase domain protein of RC kinase (RCK) (Homo sapiens, UniProt Q56UN5); experiment: Kinase competition binding assay (Kd, qPCR readout), RC kinase; conditions: Kd class, read-out: RCK Activity Level
T3 construct: made in house; host or cells: E. coli BL21-derived host (T7 phage) or HEK-293
T3 sequence (Q56UN5 1061-1324 limits assumed): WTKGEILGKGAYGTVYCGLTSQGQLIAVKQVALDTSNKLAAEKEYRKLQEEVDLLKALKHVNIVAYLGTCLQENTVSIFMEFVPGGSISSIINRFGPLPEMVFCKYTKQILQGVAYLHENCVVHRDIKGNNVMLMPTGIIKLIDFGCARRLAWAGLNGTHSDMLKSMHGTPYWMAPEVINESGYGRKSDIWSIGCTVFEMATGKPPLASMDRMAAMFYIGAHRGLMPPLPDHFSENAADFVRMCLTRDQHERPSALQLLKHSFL
How it was run: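 Competition binding: DNA-tagged kinase (T7 phage or HEK-293-expressed) plus immobilized biotinylated ligand beads and compound, 1 h at room temperature, 1% DMSO. Bead-bound kinase eluted and quantified by qPCR. Kd from 11-point 3-fold dilution, top 30,000 nM, retested lower if below 0.5 nM.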

T1 sequence (O60674 840-1132 limits assumed): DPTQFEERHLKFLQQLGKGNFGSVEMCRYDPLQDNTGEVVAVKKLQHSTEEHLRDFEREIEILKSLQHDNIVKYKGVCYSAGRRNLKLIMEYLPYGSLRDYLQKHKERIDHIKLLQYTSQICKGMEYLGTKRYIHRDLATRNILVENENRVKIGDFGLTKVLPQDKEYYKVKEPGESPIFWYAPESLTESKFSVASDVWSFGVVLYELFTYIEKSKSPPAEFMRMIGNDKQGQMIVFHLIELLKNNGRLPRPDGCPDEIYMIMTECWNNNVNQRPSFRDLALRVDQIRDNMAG

| Structure (SMILES) | Kd (JAK2) | RCK:JAK2 selectivity ratio (JAK2) | Kd (JAK3) | RCK:JAK3 selectivity ratio (JAK3) | Kd [1] |
| --- | --- | --- | --- | --- | --- |
| N#CCc1ccc(Nc2n[nH]c(NCc3ccc(O)cc3)c2C(N)=O)cc1 [reference compound] | < 50 nM | D (D represents Kd(JAK2): Kd (RCK)<1) | < 50 nM | C (C represents 1<Kd (JAK3): Kd (RCK)<10) | < 50 nM |
| NC(=O)c1c(Nc2ccc(NC(=O)c3ccc(C(F)(F)F)cc3)cc2)n[nH]c1NCc1ccc(O)cc1 [reference compound] | 100 to 1000 nM | C (C represents 1<Kd (JAK2): Kd (RCK)<10) | 100 to 1000 nM | C (C represents 1<Kd (JAK3): Kd (RCK)<10) | 50 to 100 nM |
| Cc1cc(CNc2[nH]nc(Nc3ccc(N4CCS(=O)(=O)CC4)cc3)c2C(N)=O)cc(C)c1O [Compound 32, 3-((4-(1,1-dioxidothiomorpholino)phenyl)amino)-5-((4-hydroxy-3,5-dimethylbenzyl)amino)-1H-pyrazole-4-carboxamide] | 100 to 1000 nM | C (C represents 1<Kd (JAK2): Kd (RCK)<10) | 100 to 1000 nM | B (B represents 10<Kd (JAK3): Kd (RCK)<100) | < 50 nM |
| Cc1cc(CNc2[nH]nc(Nc3ccc(N4CCC(N(C)C)CC4)cc3)c2C(N)=O)cc(C)c1O [Compound 36, 3-((4-(4-(dimethylamino)piperidin-1-yl)phenyl)amino)-5-((4-hydroxy-3,5-dimethylbenzyl)amino)-1H-pyrazole-4-carboxamide] | 100 to 1000 nM | B (B represents 10<Kd(JAK2): Kd (RCK)<100) | > 1000 nM | A (A represents Kd (JAK3): Kd (RCK)>100) | < 50 nM |
| COc1cccc(Nc2n[nH]c(NCc3cc(C)c(O)c(C)c3)c2C(N)=O)c1 [Compound 52, 5-((4-hydroxy-3,5-dimethylbenzyl)amino)-3-((3-methoxyphenyl)amino)-1H-pyrazole-4-carboxamide] | > 1000 nM | C (C represents 1<Kd (JAK2): Kd (RCK)<10) | > 1000 nM | C (C represents 1<Kd (JAK3): Kd (RCK)<10) | > 1000 nM |
| Cc1cc(CNc2[nH]nc(Nc3ccc(N)cc3)c2C(N)=O)cc(C)c1O [Compound 47, 3-((4-aminophenyl)amino)-5-((4-hydroxy-3,5-dimethylbenzyl)amino)-1H-pyrazole-4-carboxamide] | > 1000 nM | C (C represents 1<Kd (JAK2): Kd (RCK)<10) | > 1000 nM | C (C represents 1<Kd (JAK3): Kd (RCK)<10) | > 1000 nM |
| C[C@@H]1CC(c2ccc(Nc3n[nH]c(NCc4ccc(O)cc4)c3C(N)=O)cn2)C[C@H](C)O1 (stereo partly drawn) [reference compound] | < 50 nM | C (C represents 1<Kd (JAK2): Kd (RCK)<10) | < 50 nM | C (C represents 1<Kd (JAK3): Kd (RCK)<10) | < 50 nM |
| Cc1cc(CNc2[nH]nc(Nc3ccc(N4CCN(C(=O)N5CCOCC5)CC4)cc3)c2C(N)=O)cc(C)c1O [Compound 39, 5-((4-hydroxy-3,5-dimethylbenzyl)amino)-3-((4-(4-(morpholine-4-carbonyl)piperazin-1-yl)phenyl)amino)-1H-pyrazole-4-carboxamide] | < 50 nM | B (B represents 10<Kd(JAK2): Kd (RCK)<100) | < 50 nM | B (B represents 10<Kd (JAK3): Kd (RCK)<100) | 50 to 100 nM |
| C[C@@H]1CN(c2ccc(Nc3n[nH]c(NCc4ccc(O)cc4)c3C(N)=O)cc2Cl)C[C@H](C)O1 [reference compound] | < 50 nM | D (D represents Kd(JAK2): Kd (RCK)<1) | < 50 nM | C (C represents 1<Kd (JAK3): Kd (RCK)<10) | < 50 nM |
